The results in this text go back to patent US20230219965A1 (KSQ Therapeutics, Inc., priority 2020, published 2023).

The term IC50 denotes the point on the concentration scale where inhibition reaches its midpoint. In general, solubility refers to the concentration that dissolves in the medium under given conditions. As a reminder, the half-life is how long it takes for the measured level to halve. Higher therefore signals slow decline.

Sequence of USP1/UAF1 enzyme (O94782 whole entry): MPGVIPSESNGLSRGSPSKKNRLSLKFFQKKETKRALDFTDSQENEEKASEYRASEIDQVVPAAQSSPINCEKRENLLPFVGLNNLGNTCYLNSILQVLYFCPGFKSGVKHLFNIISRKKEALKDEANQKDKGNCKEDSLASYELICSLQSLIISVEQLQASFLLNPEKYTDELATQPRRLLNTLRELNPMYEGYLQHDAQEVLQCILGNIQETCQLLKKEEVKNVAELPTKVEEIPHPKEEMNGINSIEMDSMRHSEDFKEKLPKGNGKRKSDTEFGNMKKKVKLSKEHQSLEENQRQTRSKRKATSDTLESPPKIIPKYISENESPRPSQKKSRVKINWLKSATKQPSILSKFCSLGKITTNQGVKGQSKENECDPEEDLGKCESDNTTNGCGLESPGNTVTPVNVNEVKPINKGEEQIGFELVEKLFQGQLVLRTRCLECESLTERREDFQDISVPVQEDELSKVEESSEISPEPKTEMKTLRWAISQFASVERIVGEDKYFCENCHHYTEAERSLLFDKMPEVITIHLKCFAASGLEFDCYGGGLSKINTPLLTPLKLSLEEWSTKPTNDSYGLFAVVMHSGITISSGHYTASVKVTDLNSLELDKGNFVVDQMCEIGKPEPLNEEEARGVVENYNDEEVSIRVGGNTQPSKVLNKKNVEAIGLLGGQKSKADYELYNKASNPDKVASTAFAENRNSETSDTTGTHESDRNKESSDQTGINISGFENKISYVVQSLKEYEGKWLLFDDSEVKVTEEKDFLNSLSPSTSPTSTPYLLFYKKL
Sequence of USP1/UAF1 enzyme (Q8TAF3 whole entry partner): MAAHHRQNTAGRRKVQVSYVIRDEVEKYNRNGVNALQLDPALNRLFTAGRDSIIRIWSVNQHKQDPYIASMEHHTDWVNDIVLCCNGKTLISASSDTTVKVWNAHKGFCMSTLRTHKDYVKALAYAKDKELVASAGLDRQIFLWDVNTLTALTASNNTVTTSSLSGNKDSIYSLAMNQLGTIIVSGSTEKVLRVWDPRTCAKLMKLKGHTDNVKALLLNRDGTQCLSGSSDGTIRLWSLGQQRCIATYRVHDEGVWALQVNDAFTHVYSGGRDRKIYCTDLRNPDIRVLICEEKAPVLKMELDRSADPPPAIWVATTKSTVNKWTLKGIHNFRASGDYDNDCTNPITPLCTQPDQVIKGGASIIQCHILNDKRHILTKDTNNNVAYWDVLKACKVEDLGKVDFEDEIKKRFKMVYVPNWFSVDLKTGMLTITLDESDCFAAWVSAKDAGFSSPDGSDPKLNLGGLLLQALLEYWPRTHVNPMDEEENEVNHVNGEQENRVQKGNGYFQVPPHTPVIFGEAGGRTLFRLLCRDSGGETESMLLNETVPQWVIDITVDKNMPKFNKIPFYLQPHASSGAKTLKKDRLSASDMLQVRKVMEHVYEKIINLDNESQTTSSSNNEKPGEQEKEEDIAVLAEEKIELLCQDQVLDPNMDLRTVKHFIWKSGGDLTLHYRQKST

One data set has as its target USP1/UAF1 enzyme (Homo sapiens, UniProt O94782). The experiment in a line: USP1/UAF1 deubiquitination assay (ubiquitin-rhodamine 110 substrate). The class given is biochemical. The conditions noted are these: read-out: USP1 IC50 (Ub-Rho). An outline of the steps:
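0.05 nM USP1/UAF1 was preincubated 10 min with compounds (dose response from 10 μM) in 50 mM Tris-HCl pH 7.8, 0.5 mM EDTA, 0.01% BSA, 1 mM DTT, 0.01% Tween-20. 150 nM ubiquitin-rhodamine 110 started the reaction, read kinetically 30 min at Ex480/Em540; IC50 by four-parameter fit versus no-enzyme and DMSO controls.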
Turning to `COCc1cc(C(F)(F)F)nn1-c1ccc(CN2C(=O)CCn3nc(-c4c(Cl)cnn4C(C)C)cc32)cc1` [Example 100], the IC50 was < 0.1 µM. Same read-out and setting: the figure for `COCCOc1cc(CN2C(=O)CCn3nc(-c4c(Cl)cnn4C(C)C)nc32)ccc1-c1nc(C(F)(F)F)cn1C(C)C` [Example 167] is 0.1 to 0.5 µM; for `CC(CF)n1cc(C(F)(F)F)nc1-c1ccc(NC2CCCn3nc(-c4c(Cl)cnn4C(C)C)cc32)cc1` (stereo not shown) [Example 390, 2-(4-chloro-1-isopropyl-1H-pyrazol-5-yl)-N-(4-(1-(1-fluoropropan-2-yl)-4-(trifluoromethyl)-1H-imidazol-2-yl)phenyl)-4,5,6,7-tetrahydropyrazolo[1,5-a]pyridin-4-amine] it is < 0.1 µM. As to `CC(C)n1ncc(F)c1-c1cc2n(n1)CCC(=O)N2Cc1ccc(-c2nc(C(F)(F)F)cn2C)c(F)c1` [Example 21, 2-(4-fluoro-1-isopropyl-1H-pyrazol-5-yl)-4-(3-fluoro-4-(1-methyl-4-(trifluoromethyl)-1H-imidazol-2-yl)benzyl)-6,7-dihydropyrazolo[1,5-a]pyrimidin-5(4H)-one], the IC50 is 0.1 to 0.5 µM.

`COc1ncnc(C2CC2)c1-c1cc2n(n1)CCC(=O)N2Cc1ccc(-c2nn(C)cc2C)cc1` [Example 90]: the IC50 was > 0.5 µM. Still for that read-out and setting: the figure for `COc1ncnc(C2CC2)c1-c1cc2n(n1)CCC(=O)N2Cc1ccc(-c2nc(C(F)(F)F)c[nH]2)cc1` [Example 69, 2-(4-cyclopropyl-6-methoxypyrimidin-5-yl)-4-(4-(4-(trifluoromethyl)-1H-imidazol-2-yl)benzyl)-6,7-dihydropyrazolo[1,5-α]pyrimidin-5(4H)-one] is 0.1 to 0.5 µM; for `COc1cccnc1-c1ccc(CN2C(=O)CCn3nc(-c4c(OC)ncnc4C4CC4)cc32)cc1Cl` [Example 313] it is 0.1 to 0.5 µM. Same read-out and setting: the figure for `CCNc1ccc(-c2ccc(CN3C(=O)CCn4nc(-c5c(Cl)cnn5C(C)C)cc43)cc2Cl)nn1` [Example 314] is > 0.5 µM; for `CCn1cc(C(F)(F)F)nc1-c1cnc(CN2C(=O)CCn3nc(-c4c(Cl)cnn4C(C)C)cc32)nc1` [Example 354, 2-(4-chloro-1-isopropyl-1H-pyrazol-5-yl)-4-((5-(1-ethyl-4-(trifluoromethyl)-1H-imidazol-2-yl)pyrimidin-2-yl)methyl)-6,7-dihydropyrazolo[1,5-α]pyrimidin-5(4H)-one] it is > 0.5 µM. The same measure, in the same setting: the figure for `COc1ncnc(C2CC2)c1-c1nc2n(n1)CCC(=O)N2Cc1ccc(-c2ncccc2OC(C)C)c(Cl)c1` [Example 295] is 0.1 to 0.5 µM; for `COc1cccnc1-c1ccc(N[C@H]2CCCn3nc(-c4c(OC)ncnc4C4CC4)cc32)cc1F` (single isomer, unassigned) [Example 252] it is 0.1 to 0.5 µM. `CCn1cc(C(F)(F)F)nc1-c1ccc(CN2C(=O)CCn3nc(-c4c(OC)ncnc4OC(F)F)nc32)cc1` [Example 376, 2-(4-(difluoromethoxy)-6-methoxypyrimidin-5-yl)-4-(4-(1-ethyl-4-(trifluoromethyl)-1H-imidazol-2-yl)benzyl)-6,7-dihydro-[1,2,4]triazolo[1,5-a]pyrimidin-5(4H)-one]: the IC50 was < 0.1 µM.

Regarding `CC(C)n1ncc(Cl)c1-c1cc2n(n1)CCC(=O)N2Cc1ccc(-c2nc(C(F)(F)F)n(C)n2)cc1` [Example 101], the IC50 lay in the range of 0.1 to 0.5 µM. Still for that read-out and setting: next, `CNCc1cc(C(F)(F)F)nn1-c1ccc(CN2C(=O)CCn3nc(-c4c(OC)ncnc4C4CC4)cc32)cc1` [Example 225, 2-(4-cyclopropyl-6-methoxypyrimidin-5-yl)-4-(4-(5-((methylamino)methyl)-3-(trifluoromethyl)-1H-pyrazol-1-yl)benzyl)-6,7-dihydropyrazolo[1,5-a]pyrimidin-5(4H)-one]: 0.1 to 0.5 µM; `COc1ncnc(C2CC2)c1-c1cc2n(n1)CCC(=O)N2Cc1ccc(-c2nc(C(F)(F)F)cn2C)nc1` [Example 83]: > 0.5 µM; `CCn1cc(C(F)(F)F)nc1-c1ccc(CN2C(=O)CCn3nc(-c4ccnn4C(C)C)c(Cl)c32)cc1` [Example 268, 3-chloro-4-(4-(1-ethyl-4-(trifluoromethyl)-1H-imidazol-2-yl)benzyl)-2-(1-isopropyl-1H-pyrazol-5-yl)-6,7-dihydropyrazolo[1,5-α]pyrimidin-5(4H)-one]: > 0.5 µM. Still for that read-out and setting: next, `CCn1cc(C(F)(F)F)nc1-c1ccc(CN2C(=O)[C@H](C)Cn3nc(-c4c(OC)ncnc4C4CC4)nc32)cc1` [Example 382, (R)-2-(4-cyclopropyl-6-methoxypyrimidin-5-yl)-4-(4-(1-ethyl-4-(trifluoromethyl)-1H-imidazol-2-yl)benzyl)-6-methyl-6,7-dihydro-[1,2,4]triazolo[1,5-a]pyrimidin-5(4H)-one]: < 0.1 µM; `CC(c1ccc(-n2nc(C(F)(F)F)cc2OCC(F)F)cc1)N1C(=O)CCn2nc(-c3c(Cl)cnn3C(C)C)nc21` (stereo not shown) [Example 215]: 0.1 to 0.5 µM. On the same count and under the same terms, the figure for `CCn1cc(C(F)(F)F)nc1-c1ccc(CN2C(=O)CCn3nc(-c4c(Cl)cnn4CCO)cc32)cc1F` [Example 163] is 0.1 to 0.5 µM; for `CCn1cc(C(F)(F)F)nc1-c1ccc(CN2C(=O)CCn3nc(-c4c(C5CC5)ccnc4OC(F)F)nc32)cc1` [Example 373, 2-(4-cyclopropyl-2-(difluoromethoxy)pyridin-3-yl)-4-(4-(1-ethyl-4-(trifluoromethyl)-1H-imidazol-2-yl)benzyl)-6,7-dihydro-[1,2,4]triazolo[1,5-a]pyrimidin-5(4H)-one] it is 0.1 to 0.5 µM; for `Cn1cc(C(F)(F)F)nc1-c1ccc(Cn2c(=O)ccn3nc(-c4c(OC(F)F)ncnc4C4CC4)nc23)cc1F` [Example 385, 2-(4-cyclopropyl-6-(difluoromethoxy)pyrimidin-5-yl)-4-(3-fluoro-4-(1-methyl-4-(trifluoromethyl)-1H-imidazol-2-yl)benzyl)-[1,2,4]triazolo[1,5-a]pyrimidin-5(4H)-one] it is < 0.1 µM. As for `CC(C)n1ncc(Cl)c1-c1cc2n(n1)CCC(=O)N2Cc1ccc(-c2cncc(C(F)(F)F)n2)c(Cl)c1` [Example 272], the IC50 is > 0.5 µM. With `Cc1ncc(-c2ccc(CN3C(=O)CCn4nc(-c5c(Cl)cnn5C(C)C)cc43)cc2Cl)n1C` [Example 284], the IC50 was > 0.5 µM. The same measure, in the same setting: next, `CC(C)n1ncc(Cl)c1-c1cc2n(n1)CCC(=O)N2Cc1ccc(-c2nn(C)cc2C#N)c(Cl)c1` [Example 287]: > 0.5 µM; `COc1ncnc(C2CC2)c1-c1nc2n(n1)CCC(=O)N2C(C)c1ccc(-c2ncccc2N(C)C)cc1` (stereo not shown) [Example 219]: < 0.1 µM; `CCn1cc(C)nc1-c1ccc(CN2C(=O)CCn3nc(-c4c(Cl)cnn4C(C)C)cc32)cc1` [Example 134]: 0.1 to 0.5 µM.

As to `CCn1cc(C(F)(F)F)nc1-c1ccc(CN2C(=O)CCn3nc(-c4c(Cl)cnn4C4CCOC4)cc32)cc1` (stereo not shown) [Example 150], the IC50 lay within 0.1 to 0.5 µM.

Turning to `CCn1cc(C(F)(F)F)nc1-c1ccc(Cn2c(=O)c(C)cn3nc(-c4c(OC)ncnc4C4CC4)nc23)cc1` [Example 391, 2-(4-cyclopropyl-6-methoxypyrimidin-5-yl)-4-(4-(1-ethyl-4-(trifluoromethyl)-1H-imidazol-2-yl)benzyl)-6-methyl-[1,2,4]triazolo[1,5-α]pyrimidin-5(4H)-one], the IC50 was < 0.1 µM. The same measure, in the same setting: next, `CC(C)n1ncc(Cl)c1-c1cc2n(n1)CCC(=O)N2Cc1ccc(-c2nc(C(F)(F)F)nn2C)cc1` [Example 102]: 0.1 to 0.5 µM; `CC(C)n1ncc(Cl)c1-c1cc2n(n1)CCC(=O)N2Cc1ccc(-c2ccn(C)n2)cc1` [Example 95]: 0.1 to 0.5 µM; `CC(C)n1cc(C(F)(F)F)nc1-c1ccc(CN2C(=O)CCn3nc(-c4c(Cl)cnn4C(C)C)nc32)cc1OCCO` [Example 228, 2-(4-chloro-1-isopropyl-1H-pyrazol-5-yl)-4-(3-(2-hydroxyethoxy)-4-(1-isopropyl-4-(trifluoromethyl)-1H-imidazol-2-yl)benzyl)-6,7-dihydro-[1,2,4]triazolo[1,5-α]pyrimidin-5(4H)-one]: 0.1 to 0.5 µM.

Consider `CCn1cc(C(F)(F)F)nc1-c1ccc(CN2C(=O)CCn3nc(-c4c(C(C)C)cnn4C)cc32)cc1` [Example 158], for which the IC50 is > 0.5 µM. For the molecule `Cc1cc(-c2ccc(CN3C(=O)CCn4nc(-c5c(Cl)cnn5C(C)C)cc43)cc2Cl)n(C)n1` [Example 281], the IC50 was > 0.5 µM. Same read-out and setting: the figure for `COc1ncnc(C2CC2)c1-c1nc2n(n1)CCC(=O)N2C(C)c1ccc(-c2nc(C(F)(F)F)cn2C(C)C)c(F)c1OC` (stereo not shown) [Example 218] is 0.1 to 0.5 µM.

Test system in another data set: not listed separately
The experiment in a line: ADME solubility determination in PBS at pH 2.0 and pH 7.4. Format: physicochemical. The conditions noted are these: phosphate buffered saline, 25 °C, pH 2, aqueous buffer, thermodynamic from solid, PBS pH 2.0, 25° C., read-out: Solubility at pH 2.0. On the procedure:
Certain Compounds of the Disclosure were assessed for ADME solubility at pH 2.0 and pH 7.4.
Stock solutions were prepared by adding each compound to DMSO at a concentration of 10 mM. Samples were prepared by adding 50 μL of each stock solution to separate vials. The vials were loaded onto a 96-well rack and dried. 500 μL of Phosphate Buffered Saline (PBS) pH 7.4 or PBS pH 2.0 were added into each vial. The vials were then shaken at 25° C. and 1,100 rpm for 24 hours.
After 24 hours, the vials were centrifuged at 3220 G and 25° C. for 30 minutes. The supernatant fluid was analyzed by LC-MS/MS against a standard of known concentration. The solubility of each sample was then calculated using the equation below: […]
where DF is the dilution factor.
As to `COCc1cc(C(F)(F)F)nn1-c1ccc(CN2C(=O)CCn3nc(-c4c(Cl)cnn4C(C)C)cc32)cc1` [Example 100], the solubility at 24 h is < 10 µM. The same measure, in the same setting: the figure for `COCCOc1cc(CN2C(=O)CCn3nc(-c4c(Cl)cnn4C(C)C)nc32)ccc1-c1nc(C(F)(F)F)cn1C(C)C` [Example 167] is < 10 µM.

The same data set, now with this note: phosphate buffered saline, 25 °C, pH 7.4, aqueous buffer, thermodynamic from solid, PBS pH 7.4, 25° C., read-out: Solubility at pH 7.4.
Consider `COCc1cc(C(F)(F)F)nn1-c1ccc(CN2C(=O)CCn3nc(-c4c(Cl)cnn4C(C)C)cc32)cc1` [Example 100], for which the solubility at 24 h was < 10 µM. Same read-out and setting: next, `COCCOc1cc(CN2C(=O)CCn3nc(-c4c(Cl)cnn4C(C)C)nc32)ccc1-c1nc(C(F)(F)F)cn1C(C)C` [Example 167]: < 10 µM.

Test system in another data set: not listed separately
The experiment in a line: Liver microsomal metabolic stability, rat liver microsomes (RLM). The conditions noted are these: rat, liver microsomes, t1/2 (min) in RLM, 1 μM compound, 1 mg/mL microsomes, NADPH. In general terms: Microsomes from liver hold many membrane-bound enzymes, among them those of drug oxidation.
With `COCc1cc(C(F)(F)F)nn1-c1ccc(CN2C(=O)CCn3nc(-c4c(Cl)cnn4C(C)C)cc32)cc1` [Example 100], the half-life at 1 μM is < 25 min.

Test system in a further data set: not listed separately
Nature of the data set: Liver microsomal metabolic stability, human liver microsomes (HLM). The conditions noted are these: human, liver microsomes.
Protocol: Samples were prepared by adding 222.5 μL of a master solution (100 mM phosphate buffer and 1 mg/mL liver microsomes (HLM or RLM)) and 25 μL of a 10 mM NADPH solution to incubation plates, which were then warmed for 10 min. Each compound was separately dissolved in DMSO to prepare 10 mM stock solutions, which were then diluted to 100 μM with acetonitrile. A reaction was started by adding 2.5 μL of the 100 μM solution of each compound to separate incubation plates such that the final concentration of for each compound in each plate was 1 μM.
25 μL aliquots of each sample were taken at 0.5, 5, 10, 15, 20 and 30 minutes, and the reaction was stopped by adding 5 volumes of cold acetonitrile with IS (100 nM alprazolam, 200 nM caffeine and 100 nM tolbutamide). The samples were then centrifuged at 3,220 G for 30 minutes, and 100 μL of the supernatant fluid was mixed with 100 μL of ultra-pure H2O.
The samples were then analyzed by LC-MS/MS. Peak areas were determined from extracted ion chromatograms. Slope values (k) were determined by linear regression of the natural logarithm of the remaining percentage of the compound vs. incubation time curve. The in vitro half-life (in vitro t1/2) was determined from the slope value using the following equation:
Take `COCc1cc(C(F)(F)F)nn1-c1ccc(CN2C(=O)CCn3nc(-c4c(Cl)cnn4C(C)C)cc32)cc1` [Example 100]: the half-life at 1 μM is < 25 min.
